The CATMoS acute toxicity set (Mansouri et al. 2021)

assay: GHS categories as the set defines them, by LD50: 1 up to 5, 2 up to 50, 3 up to 300, 4 up to 2000, 5 above 2000 mg/kg; settings: rat; in vivo; po

Structure (SMILES) | GHS category
CC(=O)OCC1=C(C(=O)O)N2C(=O)[C@@H](NC(=O)[C@H](N)c3ccccc3)[C@H]2SC1 | 5
Cc1cccc(N(C)C(=S)Oc2ccc3c(c2)C2CCC3C2)c1 (stereo not drawn) | 4
COc1ccccc1NC(=O)c1cc2ccccc2c(N=Nc2ccc(C(N)=O)cc2)c1O | 5
O=S(=O)(O)c1ccc(Nc2nc(Cl)nc(Cl)n2)cc1 | 5
CCC[C@H]1CC[C@H](c2ccc(O)cc2)CC1 | 5
CNC(=O)c1sc(-c2ccc(OC)cc2)nc1C | 5
CCOC(=O)c1sc(-c2ccc(OCC(C)C)c(C=O)c2)nc1C | 5
CNC(=O)Oc1cccc2c1OC(C)O2 (stereo not drawn) | 3
Nc1c(OCCOC(=O)Oc2ccccc2)cc(O)c2c1C(=O)c1ccccc1C2=O | 5
CCCCCCCCCC=CC=O | 5
CCCCC1COCC(C)C1OC(C)=O (stereo not drawn) | 5
CC(=O)NC1CCc2nc(N)sc2C1 (stereo not drawn) | 5
OCC(O)COC1CCCCC1 (stereo not drawn) | 5
COC(=O)c1c(C)nc(C)c(C(=O)O)c1-c1cc([N+](=O)[O-])ccc1F | 5
CCc1ccc(CC)cc1 | 5
C=CCN1C(=O)CCc2c(OCC(O)CN3CCC(Cc4ccccc4)CC3)cccc21 (stereo not drawn) | 4
CCCCCCCCCCCCCCCC(=O)O[C@@H]1C[C@@H](C(=O)O)N(C(=O)CCCCCCCCCCCCCCC)C1 | 5
COC(=O)c1ccc2c(c1)NC(=O)C2 | 5
CCCc1c(Cc2ccc(-c3ccccc3-c3nn[nH]n3)cc2)c(=O)nc2nc(C)[nH]n12 | 4
O=C[C@H](O[C@@H](C=O)[C@@H](O)[C@H](O)[C@H](O)CO)[C@@H](O)[C@H](O)[C@H](O)CO | 5

Structure (SMILES) | GHS category
ClCC(Cl)C(Cl)(Cl)Cl (stereo not drawn) | 4
CCCCCCCCCCCCCc1cccc(O)c1C(=O)O | 4
CCC(C(=O)NC(=O)NC(C)=O)c1ccccc1 (stereo not drawn) | 5
CN(C)Cc1ccccc1Cl | 4
CC1(c2ccc(Oc3ccccc3)cc2)OC(=O)N(Nc2ccccc2)C1=O (stereo not drawn) | 5
CCCCCCOCC(OC)OC | 5
CN1CCN(C2=NS(=O)(=O)c3cc(Cl)ccc3N2)CC1 | 5
CCCCOC(=O)CC(C)C | 5
CC(CO)(CO)C(=O)O | 5
CN(CCOP(=O)(O)O)C(=N)N | 5
Nc1ncnc2c1ncn2[C@@H]1O[C@H](COP(=O)(O)OP(=O)(O)OP(=O)(O)O)[C@@H](O)[C@H]1O | 5
CCCC=CCC1CCCC1=O (stereo not drawn) | 5
CC(C)Br | 5
Cc1nn(C)c(O)c1C(=O)c1ccc(C(F)(F)F)cc1S(C)(=O)=O | 5
CCCCCCCCOC(=O)c1ccc(C(=O)OCCCCCCCC)c(C(=O)OCCCCCCCC)c1 | 5
CCCCCCCCCCCCCCCC(=O)OC[C@H](O)[C@H]1OC(=O)C(O)=C1O | 5
CCC1COC(Cn2cncn2)(c2cc3ccccc3o2)O1 (stereo not drawn) | 4
COc1ccc2[nH]cc(CCNC(C)=O)c2c1 | 5
C=CCCCCCCCCC(OCC=C(C)CCC=C(C)C)OCC=C(C)CCC=C(C)C (stereo not drawn) | 5
CCOC(=O)C1=C(C)C=CCC1(C)C | 5

Structure (SMILES) | GHS category
C=CC1=C(C(=O)O)N2C(=O)[C@@H](NC(=O)C(=NOCC(=O)O)c3csc(N)n3)[C@H]2SC1 | 5
CCCC(=O)OC | 5
CC(O)C(C)O (stereo not drawn) | 5
CC(C)=CCN(CC=C(C)C)CCC(C#N)(c1cccc2ccccc12)C(C)C (stereo not drawn) | 4
CCOC(C)OCCc1ccccc1 (stereo not drawn) | 5
Cc1cccc2ncc(C(=O)Nc3ccccc3)c(=O)n12 | 3
NC(=O)O | 4
O=C1CC(Nc2ccc([N+](=O)[O-])cc2)=NN1c1c(Cl)cc(Cl)cc1Cl | 5
COc1n[nH]c(=O)n1C | 5
CCn1cc[n+](C)c1 | 5
NCC1CCC(N)C(OC2C(N)CC(N)C(OC3OC(CO)C(O)C(N)C3O)C2O)O1 (stereo not drawn) | 5
CC[C@H](c1ccc(O)cc1)[C@@H](CC)c1ccc(O)cc1 | 5
COC1(NC(=O)C2SC(=C(C(N)=O)C(=O)O)S2)C(=O)N2C(C(=O)O)=C(CSc3nnnn3C)CSC21 (stereo not drawn) | 5
CO[C@H]1C=CO[C@@]2(C)Oc3c(C)c(O)c4c(c3C2=O)C2=NC3(CCN(CC(C)C)CC3)NC2=C(NC(=O)C(C)=CC=C[C@H](C)[C@H](O)[C@@H](C)[C@@H](O)[C@@H](C)[C@H](OC(C)=O)[C@@H]1C)C4=O | 5
COc1cc(OC)nc(NC(=O)NS(=O)(=O)c2c(-c3nnn(C)n3)cnn2C)n1 | 5
Cc1c(C#N)sc(N)c1C#N | 4
NC(N)=Nc1nc(CSCC/N=C/NS(=O)(=O)c2ccc(Br)cc2)cs1 | 5
OB(O)c1cc(F)c(F)c(F)c1 | 4
